From patent US12371436B2, “Substituted benzodiazoliums as ENaC inhibitors” (ENTERPRISE THERAPEUTICS LIMITED, priority 2016, dated 2025)

Tests used:
ENaC = molecular target: T1, ENaC (Homo sapiens, UniProt P37088+P51168+P51170); experiment: Short circuit current assay to determine ENaC blocker potency in human bronchial epithelial cells; type: cell-based; conditions: 50% inhibition of total amiloride-sensitive ISC, apical addition, read-out: Averages.ENaC IC50 (nM) Avg
T1 construct: host or cells: primary human bronchial epithelial cells (HBECs) differentiated at air-liquid interface
T1 sequence (P37088 1-669): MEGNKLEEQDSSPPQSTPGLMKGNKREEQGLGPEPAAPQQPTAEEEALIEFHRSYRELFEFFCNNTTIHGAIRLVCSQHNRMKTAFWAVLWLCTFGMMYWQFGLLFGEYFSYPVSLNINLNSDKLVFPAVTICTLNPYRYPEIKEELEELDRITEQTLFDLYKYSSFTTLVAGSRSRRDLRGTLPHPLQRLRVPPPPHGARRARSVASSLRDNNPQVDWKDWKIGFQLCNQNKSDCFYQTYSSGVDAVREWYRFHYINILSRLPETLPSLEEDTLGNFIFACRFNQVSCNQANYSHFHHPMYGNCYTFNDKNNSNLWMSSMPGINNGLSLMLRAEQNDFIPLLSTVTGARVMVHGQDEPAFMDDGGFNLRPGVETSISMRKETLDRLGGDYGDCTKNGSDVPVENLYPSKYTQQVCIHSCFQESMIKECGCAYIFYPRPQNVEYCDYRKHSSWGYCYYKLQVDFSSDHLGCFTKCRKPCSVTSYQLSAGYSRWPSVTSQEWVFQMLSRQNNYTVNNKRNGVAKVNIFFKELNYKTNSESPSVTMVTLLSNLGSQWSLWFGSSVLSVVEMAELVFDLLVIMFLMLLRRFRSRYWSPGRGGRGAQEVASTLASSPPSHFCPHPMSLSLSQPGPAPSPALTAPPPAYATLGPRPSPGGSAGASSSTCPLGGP
T1 sequence (P51168 1-640): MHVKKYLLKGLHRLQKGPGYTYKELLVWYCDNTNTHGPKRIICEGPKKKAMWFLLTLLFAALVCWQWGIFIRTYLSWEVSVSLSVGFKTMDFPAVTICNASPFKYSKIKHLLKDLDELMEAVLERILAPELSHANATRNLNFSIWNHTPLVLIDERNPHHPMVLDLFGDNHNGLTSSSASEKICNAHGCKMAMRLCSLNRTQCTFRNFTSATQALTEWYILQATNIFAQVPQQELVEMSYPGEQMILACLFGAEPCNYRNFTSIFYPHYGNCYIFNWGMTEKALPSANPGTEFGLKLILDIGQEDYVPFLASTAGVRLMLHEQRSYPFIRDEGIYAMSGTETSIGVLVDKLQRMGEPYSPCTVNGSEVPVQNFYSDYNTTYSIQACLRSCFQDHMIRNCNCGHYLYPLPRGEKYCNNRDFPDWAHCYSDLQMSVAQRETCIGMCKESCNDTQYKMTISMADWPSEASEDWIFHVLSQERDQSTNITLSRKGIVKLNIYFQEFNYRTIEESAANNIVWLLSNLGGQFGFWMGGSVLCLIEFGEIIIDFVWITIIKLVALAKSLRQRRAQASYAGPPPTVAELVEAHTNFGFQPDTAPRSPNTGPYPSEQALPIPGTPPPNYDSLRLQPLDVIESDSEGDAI
T1 sequence (P51170 1-649): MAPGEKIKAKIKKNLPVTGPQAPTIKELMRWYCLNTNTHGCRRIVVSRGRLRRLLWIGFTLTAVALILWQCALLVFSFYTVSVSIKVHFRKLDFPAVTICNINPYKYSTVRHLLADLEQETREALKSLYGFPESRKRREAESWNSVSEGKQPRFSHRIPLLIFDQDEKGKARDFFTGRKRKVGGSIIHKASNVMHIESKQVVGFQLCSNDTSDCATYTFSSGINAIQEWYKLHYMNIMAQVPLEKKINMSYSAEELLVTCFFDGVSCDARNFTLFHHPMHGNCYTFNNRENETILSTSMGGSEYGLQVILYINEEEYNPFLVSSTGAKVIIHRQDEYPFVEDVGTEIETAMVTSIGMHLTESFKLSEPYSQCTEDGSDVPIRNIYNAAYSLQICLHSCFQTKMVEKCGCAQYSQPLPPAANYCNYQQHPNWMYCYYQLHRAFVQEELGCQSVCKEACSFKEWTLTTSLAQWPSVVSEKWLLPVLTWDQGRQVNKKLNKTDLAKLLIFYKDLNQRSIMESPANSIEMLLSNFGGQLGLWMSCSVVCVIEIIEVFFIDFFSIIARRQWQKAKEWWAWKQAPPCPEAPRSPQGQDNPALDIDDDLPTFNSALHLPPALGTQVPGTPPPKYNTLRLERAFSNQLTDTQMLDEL
In short: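 Primary human bronchial epithelial cells at air-liquid interface (days 14–21) were voltage-clamped at 0 mV in Ussing chambers (Ringer, pH 7.4, 37° C.). Compounds were added apically as cumulative concentrations, then 10 μM amiloride. IC50 was taken as 50% inhibition of amiloride-sensitive ISC.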

[1] = Bronchoalveolar lavage (BAL) procedure: compound levels after intratracheal administration; type: in vivo; conditions: bronchoalveolar lavage fluid (BAL), other: intratracheal, 0.1 mg/kg, rat, 0.1 mg/mL solution in 5% dextrose, 1 mL/Kg, BAL 6 hours after administration, LC/MS/MS
Protocol: Example 69—Bronchoalveolar Lavage (BAL) Procedure A 0.1 mg/mL solution of ENaC inhibitor in 5% dextrose was administered intratracheally to a rat weighing 225-250 g. A volume of 1 mL/Kg was used. After 6 hours, lungs were lavaged with 3×4 mL of sterile saline. A 1 mL aliquot was subsequently snap frozen. Lungs were excised, weighed and snap frozen. Compound levels in the BAL and lung tissue were subsequently determined using LC/MS/MS bioanalysis.

IC50 (ENaC): 24 nM
concentration at 6 h [1]: 140 ng/mL
SMILES: CCn1c(CNC(=O)c2nc3cc[nH]c3nc2N)[n+](CC)c2ccc(C(=O)NCCCCc3ccc(CCC(NCCCN(C[C@H](O)[C@@H](O)[C@H](O)[C@H](O)CO)C[C@H](O)[C@@H](O)[C@H](O)[C@H](O)CO)C(N)=O)cc3)cc21 (stereo partly drawn) [Example 62, 2-[({3-amino-5H-pyrrolo[2,3-b]pyrazin-2-yl}formamido)methyl]-6-{[4-(4-{3-[(3-{bis[(2S,3R,4R,5R)-2,3,4,5,6-pentahydroxyhexyl]amino}propyl)amino]-3-carbamoylpropyl}phenyl)butyl]carbamoyl}-1,3-diethyl-1H-1,3-benzodiazol-3-ium]
